Assay results as given in ChEMBL document CHEMBL5338710, “Discovery of dearomatized isoprenylated acylphloroglucinols with colon tumor suppressive activities in mice via inhibiting NFκB-FAT1-PDCD4 signaling activation” (Eur J Med Chem, 2022).
The source made the active and inactive calls. The rule behind the calls is not given here.

Experiments:
HCT-116 [1] = test: Antiproliferative activity against human HCT-116 cells assessed as reduction in cell viability at 5 uM measured after 48 hrs by MTT assay; assay type: functional, cell-based
HCT-116 [2] = test: Antiproliferative activity against human HCT-116 cells assessed as reduction in cell viability measured after 48 hrs by MTT assay; assay type: functional, cell-based; settings: HCT-116, 48 h
[3] = Antiproliferative activity against human PBMC cells assessed as reduction in cell viability measured after 48 hrs by MTT assay; assay type: toxicity, cell-based
[4] = target: Nuclear factor NF-kappa-B complex (Homo sapiens) (UniProt Q00653+P19838+Q04206); test: Inhibition of TNFalpha induced-NFkB phosphorylation in human HCT-116 cells at 1 to 5 uM pretreated for 24 hrs followed by TNFalpha induction and measured after 24 hrs by Western blot analysis; assay type: cell-based; settings: dose 1-5 µM, time 48.0 hrs
HCT-116 [5] = test: Antitumor activity against human HCT-116 cells xenografted in nude mouse assessed as decrease in tumor volume at 25 mg/kg, iv measured upto 23 days in presence of oxaliplatin; assay type: functional, organism-based; settings: time <= 23.0 day
HCT-116 [6] = test: Antitumor activity against human HCT-116 cells xenografted in nude mouse assessed as decrease in tumor weight at 25 mg/kg, iv measured upto 23 days in presence of oxaliplatin; assay type: functional, organism-based; settings: time <= 23.0 day
HCT-116 [7] = test: Antitumor activity against human HCT-116 cells xenografted in nude mouse assessed as decrease in tumor volume at 3 to 4 mg/kg, iv measured for 23 days in presence of oxaliplatin; assay type: functional, organism-based; settings: dose 3-4 mg/kg, time 23.0 day
HCT-116 [8] = test: Antitumor activity against human HCT-116 cells xenografted in nude mouse assessed as reduction in tumor weight at 3 to 4 mg/kg, iv measured for 23 days in presence of oxaliplatin; assay type: functional, organism-based; settings: dose 3-4 mg/kg, time 23.0 day

Chain of Nuclear factor NF-kappa-B complex (Homo sapiens) (P19838 whole entry, looked up): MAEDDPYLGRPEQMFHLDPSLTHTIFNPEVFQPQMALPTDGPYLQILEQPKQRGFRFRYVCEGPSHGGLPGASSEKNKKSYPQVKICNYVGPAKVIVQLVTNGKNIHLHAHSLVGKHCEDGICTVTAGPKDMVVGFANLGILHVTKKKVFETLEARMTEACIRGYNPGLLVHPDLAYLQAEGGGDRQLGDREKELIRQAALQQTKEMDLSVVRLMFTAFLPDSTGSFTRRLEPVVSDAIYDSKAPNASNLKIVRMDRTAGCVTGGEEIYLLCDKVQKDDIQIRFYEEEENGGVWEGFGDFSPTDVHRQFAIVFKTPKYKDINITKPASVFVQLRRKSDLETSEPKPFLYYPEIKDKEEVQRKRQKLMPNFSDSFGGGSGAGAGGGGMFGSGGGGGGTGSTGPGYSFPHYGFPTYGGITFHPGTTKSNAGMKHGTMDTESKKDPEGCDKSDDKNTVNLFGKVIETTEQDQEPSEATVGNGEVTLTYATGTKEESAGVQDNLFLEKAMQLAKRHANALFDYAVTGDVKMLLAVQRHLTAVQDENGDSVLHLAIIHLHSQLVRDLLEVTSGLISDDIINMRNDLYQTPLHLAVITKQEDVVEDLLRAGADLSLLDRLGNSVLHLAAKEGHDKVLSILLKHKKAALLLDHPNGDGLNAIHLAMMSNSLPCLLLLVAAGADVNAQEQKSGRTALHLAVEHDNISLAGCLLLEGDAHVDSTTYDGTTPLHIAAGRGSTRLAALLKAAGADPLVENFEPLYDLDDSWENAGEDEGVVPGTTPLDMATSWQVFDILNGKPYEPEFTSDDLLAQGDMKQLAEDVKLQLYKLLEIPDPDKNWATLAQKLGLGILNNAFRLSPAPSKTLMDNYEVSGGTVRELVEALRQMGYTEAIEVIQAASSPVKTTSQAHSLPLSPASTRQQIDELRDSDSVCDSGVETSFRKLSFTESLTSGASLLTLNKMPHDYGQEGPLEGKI
Chain of Nuclear factor NF-kappa-B complex (Homo sapiens) (Q00653 whole entry, looked up): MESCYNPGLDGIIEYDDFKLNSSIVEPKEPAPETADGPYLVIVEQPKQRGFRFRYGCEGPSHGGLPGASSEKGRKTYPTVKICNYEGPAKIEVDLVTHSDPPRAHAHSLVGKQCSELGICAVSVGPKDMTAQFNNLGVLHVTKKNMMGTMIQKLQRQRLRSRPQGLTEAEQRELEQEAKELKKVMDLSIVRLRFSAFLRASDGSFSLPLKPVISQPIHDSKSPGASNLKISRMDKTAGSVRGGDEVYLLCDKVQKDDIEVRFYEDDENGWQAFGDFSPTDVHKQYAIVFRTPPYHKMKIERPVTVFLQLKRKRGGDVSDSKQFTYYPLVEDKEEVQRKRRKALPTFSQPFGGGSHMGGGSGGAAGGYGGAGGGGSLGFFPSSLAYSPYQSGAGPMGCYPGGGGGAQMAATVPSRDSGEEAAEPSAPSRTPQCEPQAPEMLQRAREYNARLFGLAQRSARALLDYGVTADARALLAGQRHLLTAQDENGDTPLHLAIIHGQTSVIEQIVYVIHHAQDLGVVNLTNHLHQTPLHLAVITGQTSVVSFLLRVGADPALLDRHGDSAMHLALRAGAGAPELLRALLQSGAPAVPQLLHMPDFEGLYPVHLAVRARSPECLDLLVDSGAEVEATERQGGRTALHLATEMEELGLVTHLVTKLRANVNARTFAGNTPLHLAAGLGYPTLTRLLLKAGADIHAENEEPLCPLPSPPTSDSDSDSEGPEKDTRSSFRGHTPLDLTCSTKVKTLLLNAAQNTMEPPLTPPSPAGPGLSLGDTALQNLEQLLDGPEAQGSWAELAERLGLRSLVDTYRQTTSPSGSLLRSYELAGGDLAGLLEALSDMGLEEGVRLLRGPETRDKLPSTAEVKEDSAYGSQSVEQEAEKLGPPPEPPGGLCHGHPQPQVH
Chain of Nuclear factor NF-kappa-B complex (Homo sapiens) (Q04206 whole entry, looked up): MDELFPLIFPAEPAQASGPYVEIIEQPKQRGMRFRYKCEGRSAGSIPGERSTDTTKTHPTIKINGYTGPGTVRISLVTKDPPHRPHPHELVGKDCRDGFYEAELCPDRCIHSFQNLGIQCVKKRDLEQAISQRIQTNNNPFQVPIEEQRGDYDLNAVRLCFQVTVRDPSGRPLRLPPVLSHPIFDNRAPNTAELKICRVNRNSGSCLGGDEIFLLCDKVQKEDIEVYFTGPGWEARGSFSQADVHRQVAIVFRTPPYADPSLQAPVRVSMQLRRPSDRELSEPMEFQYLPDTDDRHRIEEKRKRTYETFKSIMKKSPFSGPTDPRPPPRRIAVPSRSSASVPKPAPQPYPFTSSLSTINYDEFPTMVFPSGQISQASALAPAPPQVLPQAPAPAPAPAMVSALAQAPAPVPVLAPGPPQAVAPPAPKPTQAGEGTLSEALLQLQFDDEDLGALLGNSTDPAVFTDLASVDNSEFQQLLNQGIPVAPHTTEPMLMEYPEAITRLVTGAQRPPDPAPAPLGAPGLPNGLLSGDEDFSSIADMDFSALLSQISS

Row | SMILES | Activity (HCT-116 [1]) | further results
1 | CC(C)=CCC1(CC=C(C)C)C(=O)C(C(=O)c2ccccc2)=C(O)C([C@H]2C=C(C(C)C)CC[C@@]2(C)O)=C1O | Active | –
2 | CC(C)=CCC1(C)C(=O)C(C(=O)C(C)C)=C(O)C([C@@H]2C[C@H]3CC[C@]2(C)OC3(C)C)=C1O (some centres undefined) | Active | –
3 | C=C(C)[C@@H]1CC[C@@](C)(O)[C@H]1CC1=C(O)C(CC=C(C)C)(CC=C(C)C)C(=O)C(C(=O)C(C)CC)=C1O (some centres undefined) | Active | IC50 (HCT-116 [2]): 2.46 µM; IC50 at 48 h [3]: 10 µM
4 | C=C(C)[C@@H]1CC[C@@](C)(O)[C@H]1CC1=C2O[C@H](C(C)(C)O)C[C@]2(CC=C(C)C)C(=O)C(C(=O)C(C)C)=C1O | Active | –
5 | CC(C)=CC[C@]1(C)C(=O)C(C(=O)C(C)C)=C(O)C2=C1O[C@]1(C)CC[C@]3(C(C)C)O[C@]13[C@H]2O | Active | –
6 | C=C(C)[C@@H]1CC[C@@]2(C)OC3=C(CC12)C(O)=C(C(=O)C(C)C)C(=O)C3(C)CC=C(C)C (some centres undefined) | Active | –
7 | C=C(C)[C@@H]1CC[C@@]2(C)OC3=C(CC12)C(O)=C(C(=O)c1ccccc1)C(=O)C3(CC=C(C)C)CC=C(C)C (some centres undefined) | Active | –
8 | C=C(C)[C@H]1CC[C@@]2(C)OC3=C(CC12)C(O)=C(C(=O)C(C)CC)C(=O)C3(C)CC=C(C)C (some centres undefined) | Active | –
9 | C=C(C)[C@@H]1CC[C@@](C)(O)[C@H]1CC1=C(O)C(C)(CC=C(C)C)C(=O)C(C(=O)C(C)CC)=C1O (some centres undefined) | Active | IC50 (HCT-116 [2]): 5.63 µM; IC50 at 48 h [3]: > 100 µM
10 | CC(C)=CCC1(CC=C(C)C)C(=O)/C(=C(/O)c2ccccc2)C2=C(C1O)[C@H]1C=C(C(C)C)CC[C@@]1(C)O2 (some centres undefined) | Active | –
11 | C=C(C)[C@H]1CC[C@@](C)(O)[C@@H](C2=C(O)C(CC=C(C)C)(CC=C(C)C)C(=O)C(C(=O)c3ccccc3)=C2O)C1 | Active | IC50 (HCT-116 [2]): 3.67 µM; IC50 at 48 h [3]: 24 µM
12 | C=C(C)[C@H]1CC[C@@](C)(O)[C@@H](C2=C(O)C(CC=C(C)C)(CC=C(C)C)C(=O)C(C(=O)C(C)C)=C2O)C1 | – | inhibition [4]: inactive
13 | CC(C)=CC[C@@]1(C)C(=O)C(C(=O)C(C)C)=C(O)C([C@H]2C[C@]3(C(C)(C)O)CC[C@@]2(C)O3)=C1O | Active | –
14 | C=C(C)[C@@H]1CC[C@@](C)(O)[C@H]1CC1=C2O[C@H](C(C)(C)O)C[C@]2(CC=C(C)C)C(=O)C(C(=O)c2ccccc2)=C1O | Active | –
15 | CCC(C)C(=O)C1=C(O)C2=C(OC(C)(C)C3CC[C@@](C)(O)[C@H]3C2)[C@](C)(CC=C(C)C)C1=O (some centres undefined) | Active | –
16 | COC[C@@H]1C2=C(O)C(CC=C(C)C)(CC=C(C)C)C(=O)C(C(=O)C(C)C)=C2OC1(C)C | Active | –

Row | SMILES | Activity (HCT-116 [1]) | further results
17 | CC(C)=CCC1(CC=C(C)C)C(=O)C(C(=O)C(C)C)=C(O)C2=C1O[C@]1(C)CCC3(C(C)C)OC31[C@H]2O (some centres undefined) | Active | –
18 | C=C(C)[C@H]1CC[C@@](C)(O)[C@@H](C2=C(O)[C@@](C)(CC=C(C)C)C(=O)C(C(=O)C(C)CC)=C2O)C1 (some centres undefined) | Active | IC50 (HCT-116 [2]): 2.32 µM; IC50 at 48 h [3]: 19.6 µM
19 | C=C(C)[C@@H]1CC[C@](C)(O)[C@H]1CC1=C2O[C@H](C(C)(C)O)C[C@]2(CC=C(C)C)C(=O)C(C(=O)c2ccccc2)=C1O | Active | –
20 | C=C(C)[C@@H]1CC[C@@](C)(O)[C@H]1CC1=C2O[C@H](C(C)(C)O)C[C@]2(C)C(=O)C(C(=O)C(C)CC)=C1O (some centres undefined) | Active | –
21 | CC(C)=CCC1(CC=C(C)C)C(=O)C(C(=O)C(C)C)=C(O)C([C@H]2C[C@]3(C(C)(C)O)CC[C@@]2(C)O3)=C1O | Active | –
22 | CC(C)=CCC1(CC=C(C)C)C(=O)C(C(=O)C(C)C)=C(O)C2=C1OC(C)(C)[C@@H]1CC[C@@](C)(O)[C@@H]1C2 | Active | –
23 | CC(C)=CC[C@@]12C(=O)C(C(=O)C(C)C)=C(O)C(C)=C1O[C@]1(C)CCC(C(C)C)=C[C@H]21 | Active | –
24 | CC(C)=CC[C@@]12C[C@@H](C(C)(C)O)OC1=C(CC1[C@H]3CC[C@]1(C)OC3(C)C)C(O)=C(C(=O)C(C)C)C2=O (some centres undefined) | Active | –
25 | CC(C)=CC[C@@]1(C)C(=O)C(C(=O)C(C)C)=C(O)C2=C1O[C@]1(C)CC[C@@]3(C(C)C)O[C@@]13[C@H]2O | Active | –
26 | CC(C)=CC[C@]1(C)C(=O)C(C(=O)C(C)C)=C(O)C2=C1OC(C)(C)C1CC[C@@](C)(O)[C@H]1C2 (some centres undefined) | Active | –
27 | CC(C)=CCC1(CC=C(C)C)C(=O)C(C(=O)c2ccccc2)=C(O)C([C@@H]2C[C@H]3CC[C@]2(C)OC3(C)C)=C1O | Active | –
28 | O=c1[nH]cc(F)c(=O)[nH]1 | – | Activity (HCT-116 [5]): Active; Activity (HCT-116 [6]): Active; Activity (HCT-116 [7]): Active; Activity (HCT-116 [8]): Active
29 | CCC(C)C(=O)C1=C(O)C2=C(OC(C)(C)[C@@H]3CC[C@@](C)(O)[C@@H]3C2)[C@](C)(CC=C(C)C)C1=O (some centres undefined) | Active | –
30 | C=C(C)[C@@H]1CC[C@@](C)(O)[C@H]1CC1=C(O)C(CC=C(C)C)(CC=C(C)C)C(=O)C(C(=O)c2ccccc2)=C1O | Active | –
31 | C=C(C)[C@H]1CC[C@@](C)(O)[C@@H](C2=C(O)[C@](C)(CC=C(C)C)C(=O)C(C(=O)C(C)C)=C2O)C1 | Active | IC50 (HCT-116 [2]): 2.63 µM; IC50 at 48 h [3]: 14.4 µM
